Values after ≈ are worked out from the molar mass of the structure shown.
How the values were obtained:
[1] = in vitro; settings: human
[2] = system: 3T3 cells; experiment: Dose range finding (cytotoxicity assay, MTT); type: cell-based, mouse; settings: 3T3, 24h
Experimental: - Prior to the phototoxicity assay, solubility of the composition was determined, it was decided to start from 20 mg/mL in culture media. Starting from this concentration, a dose range finding experiment (cytotoxicity assay) was performed. Starting from 20 mg/mL in culture media, eight concentrations were prepared in 1/10 dilutions: 20 mg/mL; 2 mg/mL; 0.2 mg/mL; 0.02 mg/mL; 0.002 mg/mL; 0.0002 mg/mL; 0.00002 mg/mL; and 0.000002 mg/mL
Starting from the limit of solubility obtained (20 mg/mL) a dose range finding experiment was set up in order to determine the IC50 value (if obtained). 3T3 cells were seeded at 10,000 cells/well in 96-well plates. Seven more concentrations were prepared following a 1/10 dilution factor. Cells were exposed to the postbiotic composition of the invention for 24h. SDS was used as positive control and viability was determined by means of MTT method.
To establish the concentrations to be tested in the phototoxicity assay, it was decided to check the postbiotic composition of the invention in a dose range finding assay using SDS as a positive control. Starting from 20 mg/mL dissolved in culture media it was decided to prepare the concentrations disclosed above in the materials and methods section. Using the Graphpad Prism 8 statistical software, we calculated the IC50 values by means of a 4-parameter logistic curve (4PL). This equation uses log(dose) values.

[3] = In vitro 3T3 NRU phototoxicity assay OECD 432; type: cell-based, mouse; settings: mouse, reference item; for viability at 1 h, 200 µg/mL: C1 = 200 µg/mL; for viability at 1 h, 66.67 µg/mL: C2 = 66.67 µg/mL; for viability at 1 h, 22.22 µg/mL: C3 = 22.22 µg/mL; for viability at 1 h, 7.407 µg/mL: C4 = 7.407 µg/mL; for viability at 1 h, 2.47 µg/mL: C5 = 2.47 µg/mL; for viability at 1 h, 0.823 µg/mL: C6 = 0.823 µg/mL; for viability at 1 h, 0.274 µg/mL: C7 = 0.274 µg/mL; for viability at 1 h, 0.091 µg/mL: C8 = 0.091 µg/mL
Experimental: (§1) The phototoxicity assay used 3T3 cells as test system. The aim of this study was to obtain the Photo-Irritation Factor (PIF) for the postbiotic composition of the invention. 3T3 cells were treated with the postbiotic composition of the invention at eight different concentrations for 1 hour. Thereafter, half of the samples were exposed to simulated solar irradiation, whereas the other half was kept in the dark. Cell viability was calculated after 24 hours of incubation by means of the neutral red assay. The following reagents were used for these assays. Table 3 Table 3 Reagents used in this example
(§2) Balb/c 3T3 cells were used as a test system. Once thawed, cells were grown as a monolayer in DMEM culture medium supplemented with 10% Newborn Calf Serum (NCBS) and antibiotics (100 U/mL penicillin and 100 µg/mL streptomycin). The cells were incubated under standard culture conditions (37°C ± 2°C and 5% CO2/air), changing the medium every 2-3 days and sub-cultivating before reaching 80% confluency. According to the guideline, the 3T3 cells used in this study were tested for mycoplasma and only mycoplasma-free cells were used throughout the study.
(§3) To prepare the system, after thawing, cells were propagated from stock cultures and grown in culture medium for two weeks. For each assay, when cell density reached 80% confluence, they were trypsinized and counted using trypan blue strain. The day before the exposition to the postbiotic composition of the invention, the cells were tripsinized and counted. A suspension of 100,000 cells/mL was prepared and 200 µL of the suspension were added to each well in 96-well plates (20,000 cells/well), except in the peripheral wells.
(§4) According to the OECD Guideline for testing of chemicals: In Vitro 3T3 NRU phototoxicity test, protocol No 432 (2019), the maximum concentration to be analyzed is 1 mg/mL. As the cytotoxicity assay exposed the cells to the composition for 24 hours, and the phototoxicity assay includes an exposition of 1 hour, it was decided to perform the phototoxicity test starting from 1 mg/mL. From this concentration, eight concentrations were prepared in 1/3 dilutions. This solution was prepared in Hank's with Ca2+ and Mg2+ and HEPES. (C1) 1 mg/mL; (C2) 0.33 mg/mL; (C3) 0.11 mg/mL; (C4) 0.037 mg/mL; (C5) 0.0123 mg/mL; (C6) 0.0041 mg/mL; (C7) 0.00137 mg/mL; and (C8) 0.000457 mg/mL SDS was used as a positive control, 8 concentrations were prepared 400 µg/mL; 200 µg/mL; 100 µg/mL; 50 µg/mL; 25 µg/mL; 12.5 µg/mL; 6.25 µg/mL; and 3.125 µg/mL
(§5) As the exposition time involved in the phototoxicity test was shorter, it was decided to start this assay from highest concentration allowed: 1 mg/mL. Seven more concentrations were prepared in 1/3 dilutions. 3T3 cells were seeded at 20,000 cells/well in 96-well plates. Cells were exposed to the eight concentrations of the postbiotic composition of the invention defined above for 1 hour at 37°C and 5% CO2. Two 96-well plates were prepared for the postbiotic composition of the invention, the postbiotic composition and reference control (CPZ). One plate of each condition (+IRR) was irradiated for 52 minutes at 5 J/cm^2 while the other plates (- IRR) were kept in the dark for the same amount of time. Then, culture media was removed, cells were washed with Hank's without phenol red and 100 µL of neutral red were added to each well. Cells were incubated for 3 hours at 37°C and 5% CO2 and then were washed again. Finally, the neutral red was solubilized by adding 100 µL to each well of a solution of Acetic acid/Ethanol. Plates were incubated 10 minutes at room temperature and absorbance at 540 nm was measured.
(§6) Once obtained the cytotoxic results, the phototoxicity assay for the postbiotic composition of the invention was performed using 1 mg/mL as the highest dose. […] Therefore, it was decided to use the highest concentration allowed according to OECD 432 guideline. In total, 8 concentrations were prepared as disclosed in the material and methods section above. […]

[4] = system: BALB/c 3T3 cells; experiment: In vitro 3T3 NRU phototoxicity assay OECD 432; type: cell-based, mouse; settings: for IC50: Mus musculus, BALB/c3T3, light or radiation study
Experimental: as §1, §2, §3, §4, §5, §6

CCCCCCCCCCCCOS(=O)(=O)[O-].[Na+] [SDS, Sodium dodecyl sulphate]
viability [1]: 2% | positive control result in dose range finding [2]: within the known range

CN(C)CCCN1c2ccccc2Sc2ccc(Cl)cc21 [CPZ, Chlorpromazine]
viability at 1 h, 200 µg/mL ([3]; +IRR (5 J/cm^2)): 2.57% | viability at 1 h, 66.67 µg/mL ([3]; +IRR (5 J/cm^2)): 0.32% | viability at 1 h, 22.22 µg/mL ([3]; +IRR (5 J/cm^2)): 1.62% | viability at 1 h, 7.407 µg/mL ([3]; +IRR (5 J/cm^2)): 1.75% | viability at 1 h, 2.47 µg/mL ([3]; +IRR (5 J/cm^2)): 1.31% | viability at 1 h, 0.823 µg/mL ([3]; +IRR (5 J/cm^2)): 83.4% | viability at 1 h, 0.274 µg/mL ([3]; +IRR (5 J/cm^2)): 104% | viability at 1 h, 0.091 µg/mL ([3]; +IRR (5 J/cm^2)): 103% | viability at 1 h, 200 µg/mL ([3]; -IRR): 0.41% | viability at 1 h, 66.67 µg/mL ([3]; -IRR): 0.01% | viability at 1 h, 22.22 µg/mL ([3]; -IRR): 97.8% | viability at 1 h, 7.407 µg/mL ([3]; -IRR): 104% | viability at 1 h, 2.47 µg/mL ([3]; -IRR): 105% | viability at 1 h, 0.823 µg/mL ([3]; -IRR): 105% | viability at 1 h, 0.274 µg/mL ([3]; -IRR): 104% | viability at 1 h, 0.091 µg/mL ([3]; -IRR): 102% | IC50 ([4]; irradiated plates): 0.974 µg/mL (≈ 3.05 µM) | IC50 ([4]; non-irradiated plates): 31.4 µg/mL (≈ 98.5 µM) | MPE (∑i = 1^n wi PEci)/(∑i = 1^n wi) ([4]; mouse, 1 h): 0.401 | PIF (IC50(−Irr))/(IC50(+Irr)) ([4]; mouse, 1 h): 32.303
